Data as given in patent US10316050B2, “PT (IV) complexes containing 4,4′-disubstituted-2,2′-bipyridyl and their use in cancer therapy” (THE BOARD OF REGENTS OF THE NEVADA SYSTEM OF HIGHER …, priority 2014, dated 2019).
Like-named read-outs stand apart in the source and are kept apart here.

How the values were obtained:
A549 lung cancer cells = assay: MTS cell viability assay, A549; assay type: cell-based, human; details: read-out: EC50 (effective concentration that resulted in 50% cell viability)
Experimental: (§1) Human breast (HCC38, MCF-7, MDA-MB-231, SK-BR-3, T-47D, and ZR-75-1), lung (A549 and H520), and prostate (DU145 and PC-3) cancer cell lines were obtained from American Culture Type Collection (ATCC). The HCC38, MCF-7, MDA-MB-231, SK-BR-3, T-47D, ZR-75-1, and A549 cells were grown in MEM supplemented with 10% FBS, 25 mM HEPES buffer (pH 7.4), penicillin (100 U/mL), and streptomycin (100 μg/mL). The H520, DU145, and PC-3 cell lines were grown in RPMI-1640 supplemented with 10% FBS, 25 mM HEPES buffer (pH 7.4), penicillin (100 U/mL), and streptomycin (100 μg/mL). All cell lines were maintained at 37° C. in a humidified, 5% CO2 atmosphere.
(§2) Cells were cultured at a density of 2-3.5×10^3 cells per well in flat bottomed 96-well plates in 100 μL of complete growth medium and incubated for 2 days to reach ˜50% confluence. The cells were then treated with solvent or the appropriate drugs (CDDP stock was dissolved in 0.15 M NaCl, carboplatin stock was dissolved in 5% glucose, synthesized Pt(IV) complexes were dissolved in DMSO) for 1 hour, washed three times with 100 μL PBS, and incubated in 100 μL of fresh medium. After 2 days, the medium was replaced with 120 μL of medium containing CellTiter 96® Aqueous One Solution Reagent (MTS reagent) (Promega, Madison, Wis.). The cells were incubated at 37° C. for 4 hours and the cell viability was determined by measuring the absorbance at 490 nm using a Tecan Infinite M1000 microplate reader. The 48 h treatment was done in a similar manner, except the cells were not washed after treatment and the MTS reagent was immediately added. Viability of treated groups was calculated as a percent of control and graphed with GraphPad Prism.
(§3) The anti-proliferative activities of Pt(IV) complexes were determined in two lung (A549 and H520), two prostate (DU145 and PC-3), and six breast (HCC38, MCF-7, MDA-MB-231, SK-BR-3, T-47D, and ZR-75-1) cancer cell lines. The cells were treated with increasing concentrations of cisplatin (CDDP), carboplatin, or the Pt(IV) complexes for 1 or 48 hours, and the viability was measured using an MTS colorimetric cell proliferation assay. Graphs of the results are shown for DU145 (FIG. 8A), PC-3 (FIG. 8B), SK-BR-3 (FIG. 8C), ZR-75-1 (FIG. 8D), A549 (FIG. 8E), and MCF-7 (FIG. 8F).

H520 lung cancer cells = assay: MTS cell viability assay, H520; assay type: cell-based, human; details: read-out: EC50 (effective concentration that resulted in 50% cell viability)
Experimental: as §1, §2, §3

[1] = system: DU145 prostate cancer cells; assay type: cell-based, human; details: read-out: EC50 (effective concentration that resulted in 50% cell viability)
Experimental: as §1, §2, §3
(§4) The anti-proliferative activities of certain Pt(II) complexes were determined in DU145, PC-3, and SK-BR-3 cells. The cells were treated with increasing concentrations of cisplatin (CDDP) or the Pt(II) complexes for 1 or 48 hours, and the viability was measured using an MTS colorimetric cell proliferation assay.

[2] = system: PC-3 prostate cancer cells; assay: MTS cell viability assay, PC-3; assay type: cell-based, human; details: read-out: EC50 (effective concentration that resulted in 50% cell viability)
Experimental: as §1, §2, §3, §4

[3] = system: HCC38 breast cancer cells; assay: MTS cell viability assay, HCC38; assay type: cell-based, human; details: read-out: EC50 (effective concentration that resulted in 50% cell viability)
Experimental: as §1, §2, §3

[4] = system: MCF-7 breast cancer cells; assay: MTS cell viability assay, MCF-7; assay type: cell-based, human; details: read-out: EC50 (effective concentration that resulted in 50% cell viability)
Experimental: as §1, §2, §3

[5] = system: MDA-MB-231 breast cancer cells; assay: MTS cell viability assay, MDA-MB-231; assay type: cell-based, human; details: read-out: EC50 (effective concentration that resulted in 50% cell viability)
Experimental: as §1, §2, §3

[6] = system: SK-BR-3 breast cancer cells; assay: MTS cell viability assay, SK-BR-3; assay type: cell-based, human; details: read-out: EC50 (effective concentration that resulted in 50% cell viability)
Experimental: as §1, §2, §3, §4

[7] = system: T-47D breast cancer cells; assay: MTS cell viability assay, T-47D; assay type: cell-based, human
Experimental: as §1, §2, §3

[8] = system: ZR-75-1 breast cancer cells; assay: MTS cell viability assay, ZR-75-1; assay type: cell-based, human; details: read-out: EC50 (effective concentration that resulted in 50% cell viability)
Experimental: as §1, §2, §3

[9] = Solubility in DMSO and common organic solvents; assay type: physicochemical
Experimental: Coordination of the axial ligands to the Pt center improved the solubility of the complexes in common organic solvents. DMSO solutions of the Pt(IV) complexes with concentrations of 10 mM or higher were obtainable, whereas the Pt(II) can only be made at the highest concentration of 5 mM.

[10] = Solubility in water and culture medium; assay type: physicochemical; details: water
Experimental: It should be noted that while the solubility of the Pt(IV) complexes in organic solvents were increased compared to their Pt(II) precursors, they were still poorly soluble in water. Thus, Pt(IV)-1C to Pt(IV)-3C were limited to a highest concentration of 100 μM. […] Testing of Pt(IV)4C therefore was limited to 25 μM.

[11] = Maximum tolerated dose study in a mouse model; assay type: in vivo; details: intraperitoneal administration, 12.5 mg/kg/day for three days
Experimental: As described herein, the platinum complexes provided herein can be used to reduce the viability of cancer cells. […] One of these compounds, Pt(II)-4C, was tested in vivo in a mouse model to determine the maximum tolerated dose. […] Here, a series of Pt(IV) derivatives having improved solubility in DMSO and, in some instances, increased activity compared to their Pt(II) counterparts is described.

CCCCOc1ccnc(-c2cc(OCCCC)ccn2)c1.[Cl][Pt][Cl] [Pt(II)-4C]
EC50 (A549 lung cancer cells; A549, 1 h treatment, Table 2): 17 ± 1 µM
EC50 (A549 lung cancer cells; A549, 48 h treatment, Table 4): 15.4 ± 0.5 µM
EC50 (H520 lung cancer cells; H520, 1 h treatment, Table 2): 20 ± 1 µM
EC50 (H520 lung cancer cells; H520, 48 h treatment, Table 4): 14 ± 6 µM
EC50 ([1]; DU145, 1 h treatment, Table 2): 12 ± 8 µM
EC50 ([1]; DU145, 48 h treatment, Table 4): 5 ± 2 µM
EC50 ([2]; PC-3, 1 h treatment, Table 2): 11 ± 2 µM
EC50 ([2]; PC-3, 48 h treatment, Table 4): 7.4 ± 0.5 µM
EC50 ([3]; HCC38, 1 h treatment, Table 2): 12 ± 6 µM
EC50 ([3]; HCC38, 48 h treatment, Table 4): 7.3 ± 3 µM
EC50 ([4]; MCF-7, 1 h treatment, Table 2): 22 ± 2 µM
EC50 ([4]; MCF-7, 48 h treatment, Table 4): 13 ± 1 µM
EC50 ([5]; MDA-MB-231, 1 h treatment, Table 2): 4 ± 3 µM
EC50 ([5]; MDA-MB-231, 48 h treatment, Table 4): 2.4 ± 0.6 µM
EC50 ([6]; SK-BR-3, 1 h treatment, Table 2): 5 ± 4 µM
EC50 ([6]; SK-BR-3, 48 h treatment, Table 4): 2.1 ± 0.2 µM
EC50 ([7]; 1 h treatment, Table 2, read-out: EC50 (effective concentration that resulted in 50% cell viability)): 12 ± 7 µM
EC50 ([7]; 48 h treatment, Table 4, read-out: EC50 (effective concentration that resulted in 50% cell viability)): 2.3 ± 0.4 µM
EC50 ([8]; ZR-75-1, 1 h treatment, Table 2): 21 ± 2 µM
EC50 ([8]; ZR-75-1, 48 h treatment, Table 4): 6 ± 0.9 µM
solubility in DMSO and other common organic solvents (in words) [9]: only moderate solubility in common organic solvents
solubility in water (in words) [10]: poor solubility in water
survival of the animals [11]: survived for seven days
